Data published in patent US10100076B2, “Modified nucleosides for the treatment of viral infections and abnormal cellular proliferation” (priority 2000, dated 2018).
Structures can show the parent of a compound that is named as a salt. Where two headings read alike, the source gives them in different places.

How the values were obtained:
[1] = system: CEM cells (human T-cell lymphoma); test: Prevention of β-D-GA-related cytotoxicity by natural nucleosides, CEM cells; format: cell-based; conditions: 50 μM natural nucleoside, 4 days, plot not shown
Method: (§1) The prevention of β-D-GA-related cytotoxicity in CEM cells (human T-cell lymphoma) and in the SUDHL-1 cells (human anaplastic large T-cell lymphoma cell line) was studied by adding natural nucleosides. This experiment was initiated by adding 50 μM of natural nucleosides into the media, together with increasing concentration of β-D-GA. CEM cells were seeded at 2500 cells per well and incubated for 4 days (=fast growing cell line with a doubling time of 1.3 days). SUDHL-1 cells were seeded at 10,000 cells/well, and incubated for 3 days (=slow growing cell line, doubling time 3 days). The result of this experiment is plotted in FIG. 4.

[2] = system: SUDHL-1 cells (human anaplastic large T-cell lymphoma cell line); test: Prevention of β-D-GA-related cytotoxicity by natural nucleosides, SUDHL-1 cells; format: cell-based; conditions: 50 μM natural nucleoside; SUDHL-1 cells, 3 days; FIG. 4
Method: as §1

Influenza A (H1N1) [3] = test: microbe, parasite or virus in culture; format: cell-based
Influenza A (H3N2) [4] = test: microbe, parasite or virus in culture; format: cell-based
Influenza B [5] = test: microbe, parasite or virus in culture; format: cell-based
[6] = system: Respiratory Syncytial Virus A; test: microbe, parasite or virus in culture; format: cell-based, Respiratory Syncytial Virus strain A2; conditions: for EC50: Initial Test, CPE Inhibition (Visual), read-out: EC50, RSV
[7] = system: Parainfluenza Type 3 Virus; test: organism not typed; format: cell-based, Parainfluenza type 3 virus strain 14702; conditions: for EC50: Initial Test, CPE Inhibition (Visual), read-out: EC50, Parainfluenza Type 3 Virus
Influenza A (H1N1) [8] = test: microbe, parasite or virus in culture; format: cell-based; conditions: Initial Test, Neutral Red
Influenza A (H3N2) [9] = test: microbe, parasite or virus in culture; format: cell-based; conditions: Initial Test, Neutral Red
Influenza B [10] = test: microbe, parasite or virus in culture; format: cell-based; conditions: Initial Test, Neutral Red
[11] = system: Respiratory Syncytial Virus A; test: microbe, parasite or virus in culture; format: cell-based; conditions: Initial Test, Neutral Red
[12] = system: Parainfluenza Type 3 Virus; test: organism not typed; format: cell-based; conditions: Initial Test, Neutral Red
HCV replicon = HCV replicon system in Huh7 cells, replicon RNA by Q-RT-PCR (HCV ΔCt, ΔΔCt); format: cell-based, hepatitis C virus; conditions: for Ave. ΔΔCt: HCV RNA ΔCt minus rRNA ΔCt; for Ave. HCV RNA ΔCt: HCV replicon in Huh7 cells; for average ΔΔCt: HCV RNA ΔCt minus rDNA ΔCt
[13] = system: rRNA (host RNA polymerase I product); test: rRNA ΔCt in Huh7 replicon cells (effect on host RNA polymerases); conditions: Table 24, average of n
Procedure, shortened: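 Host RNA polymerase I activity estimated by quantifying rRNA in replicon cells relative to no-drug control, expressed as ΔCt. A specificity parameter is obtained by subtracting the HCV ΔCt and rRNA ΔCt values from each other.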

rDNA (host DNA) = test: rDNA ΔCt in Huh7 replicon cells (effect on cellular DNA polymerases); conditions: Table 25, average of N
Description: In another typical setting, a compound might reduce the host RNA polymerase activity, but not the host DNA polymerase activity. Therefore, quantification of rDNA or beta-actin DNA (or any other host DNA fragment) and comparison with DNA levels of the no-drug control is a relative measurement of the inhibitory effect of the test compound on cellular DNA polymerases.
With the availability of both the HCV ΔCt data and the rDNA ΔCt, a specificity parameter can be introduced. This parameter is obtained by subtracting both ΔCt values from each other.

Influenza A (H1N1) [14] = format: cell-based, Influenza A virus A/Beijing/262/95
Influenza A (H3N2) [15] = format: cell-based, Influenza A virus A/Sydney/05/97
Influenza B [16] = format: cell-based, Influenza B virus B/Beijing/184/93
[17] = Initial Test, CPE Inhibition (Visual)
[18] = Confirmatory Test, Visual (EC50)

Row | SMILES | EC50 (Influenza A (H1N1) [3]; [17]) [µM] | EC50 (Influenza A (H3N2) [4]; [17]) [µM] | EC50 (Influenza B [5]; [17]) [µM] | EC50 [6] [µM] | EC50 [7] [µM] | EC50 (Influenza A (H1N1) [8]) [µM] | EC50 (Influenza A (H3N2) [9]) [µM] | EC50 (Influenza B [10]) [µM] | EC50 [11] [µM] | EC50 [12] [µM] | Ave. ΔΔCt (HCV replicon; Table 24) | Ave. HCV RNA ΔCt (HCV replicon; Table 24, average of n) | average ΔΔCt (HCV replicon; Table 25) | Ave. HCV RNA ΔCt (HCV replicon; Table 25, average of N) | Ave. rRNA ΔCt [13] | Ave. rDNA ΔCt (rDNA (host DNA)) | also measured
1 | O=c1ccn([C@@H]2O[C@H](CO)[C@@H](O)[C@H]2O)c(=O)[nH]1 [uridine] |  |  |  |  |  |  |  |  |  |  |  |  |  |  |  |  | prevention of β-D-GA toxicity, in words [1]: markedly prevent β-D-GA toxicity; prevention of β-D-GA toxicity, in words [2]: markedly prevent β-D-GA toxicity
2 | Nc1ccn([C@@H]2O[C@H](CO)C[C@H]2O)c(=O)n1 [β-D-AJ] | 150 | > 500 | 150 | > 500 | > 500 | 150 | > 500 | 150 | > 500 | > 500 | 1.18 | 2.92 | 2.33 | 2.75 | 1.74 | 0.43 | 
3 | OC[C@H]1O[C@@H](n2cnc3c(Cl)ncnc32)[C@H](O)[C@@H]1O [β-D-DJ] | > 500 | > 500 | 50 | 500 | > 500 | > 500 | > 500 | 110 | > 500 | 500 | −0.11 | 3.51 | 2.14 | 4.84 | 3.62 | 2.70 | 
4 | Nc1ccn([C@@H]2O[C@H](CO)C[C@H]2O)c(=O)n1 (as salt: hemisulfate) |  |  |  |  |  |  |  |  |  |  |  |  |  |  |  |  | melting point: 202 to 203 °C (dec.)
5 | O=c1nc(NO)ccn1[C@@H]1O[C@H](CO)[C@@H](O)[C@H]1O [β-D-BS] | 1.5 | 1.5 | 0.5 | 0.5 | > 500 | 1.2 | 4 | 1.2 | < 0.5 | 40 | 3.83 | 4.89 | 4.45 | 4.81 | 1.05 | 0.38 | EC50 (Influenza A (H1N1) [3]; [18]): 1.3 µM; antiviral activity against influenza A and B, in words (Influenza A (H1N1) [3]; summary of Table 23, influenza A and B): potent in vitro antiviral capacities against influenza A and B; EC50 (Influenza A (H3N2) [4]; [18]): 0.5 µM; EC50 (Influenza B [5]; [18]): 0.6 µM; antiviral activity against RSV, in words ([6]; summary of Table 23): some activities against RSV; antiviral activity against Parainfluenza type 3 virus, in words ([7]; summary of Table 23): no activity against Parainfluenza type 3 virus; EC90 (virus yield reduction) (Influenza A (H1N1) [14]): 0.4 µM; EC90 (virus yield reduction) (Influenza A (H3N2) [15]): 0.32 µM; EC90 (μM), virus yield reduction (Influenza B [16]): 0.6 µM
6 | O=c1[nH]c(=O)n([C@@H]2O[C@H](CO)[C@@H](O)[C@H]2O)c2nn[nH]c12 (hydrate or solvate) |  |  |  |  |  |  |  |  |  |  |  |  |  |  |  |  | melting point: 164 to 166 °C (dec.)
7 | Nc1ccn([C@@H]2O[C@H](CO)[C@@H](O)[C@H]2O)c(=O)n1 [cytidine] |  |  |  |  |  |  |  |  |  |  |  |  |  |  |  |  | prevention of β-D-GA toxicity, in words [1]: markedly prevent β-D-GA toxicity; prevention of β-D-GA toxicity, in words [2]: markedly prevent β-D-GA toxicity
